Measured values reported in patent publication US11180495B2 (Abbisko Therapeutics Co., Ltd., priority 2017, dated 2021).

How the values were obtained:
[1] = biological target: T1, CSF-1R (Homo sapiens, UniProt P07333); assay: CSF-1R in vitro biochemical kinase study (ADP-Glo assay); conditions: 3.95 nM CSF-1R, 500 μM ATP, 30° C. 60 min, read-out: Enzymatic experiment CSF-1R IC50
T1 construct: 3.95 nM of CSF-1R, 500 μM of ATP and 0.2 mg/mL of polypeptide
Description: In the present invention, the inhibitory activity of compounds against the CSF-1R activity was determined by using CSF-1R ADP-Glo assay. The compound-mediated inhibition effect was achieved by inhibiting the production of ADP from consumption of ATP, and the activities of compounds were evaluated by using the ADP-Glo kit (Promega, cat. No. V9101). The specific experimental process was as follows: • 1. The kinase reaction performed in the present invention was carried out in a 384-well plate (Perkinelmer, cat. No. 6007290), and 3.95 nM of CSF-1R, 500 μM of ATP and 0.2 mg/mL of polypeptide (Poly (Glu4, Try1), Sigma, cat. No. P0275) were respectively weighed and added to each well: • 2. following reagents were then added to each well to reach the final reaction system: 40 mM Tris, pH 7.5, 20 mM MgCl2, 0.01% Triton X-100, 0.1 mg/mL BSA, 2.5 mM DTT and 0.1% DMSO; • 3. the reaction was conducted at 30° C. for 60 min; • 4. then an equal volume of stop solution (ADP-Glo) was added to the kinase reaction system; • 5. the mixed solution was incubated at 25° C. for 60 min, and the kinase reaction was then terminated; • 6. a two-fold volume of detection reagent was then added to each well; • 7. the mixed solution was incubated at 25° C. for 30 min; • 8. the compound IC50 value was measured by using a plate reader (Tecan, M1000) and a four-parameter curve was generated in Graphpad Prism. B. KIT/PDGFRA In Vitro Biochemical Kinase Study • 1. Preparation of 1-fold kinase buffer and stop solution • 1.1 1-fold kinase buffer: 50 mM HEPES, pH 7.5, 0.0015% Brij-35. • 1.2 stop solution: 100 mM HEPES, pH 7.5, 0.015% Brij-35, 0.2% Coating Reagent #3 50 mM EDTA • 2. Preparation of compound solution • 2.1 Dilution of compound solution • 1) The final concentration of the compound solution was 40 μM. and the concentration of the prepared stock solution was 50 times of the final concentration, i.e., 2 mM. • 2) 80 μL of 100% DMSO was added to the second well of the 96-well plate, then 20 μL of 10 mM compound solution was added, and thereby 2 mM compound solution was prepared, 60 μL of 100% DMSO was added to other wells, 20 μL of compound was taken from the second well, added to the third well and diluted by 4 times. This serial 4-time dilution was conducted in sequence for the total of 10 concentrations. • 2.2 5-fold compound solution transferred to a reaction plate • 1) 10 μL of solution was taken from each well of the above 96-well plate and added to another 96-well plate, and 90 μL of kinase buffer was added. • 2) 5 μL of solution was taken from the above 96-well plate and added to a 384-well reaction plate. • 2.3 Kinase reaction • 1) KIT/PDGFRA kinase was added to the 1-fold kinase buffer solution to obtain a 2.5-fold kinase solution. • 2) FAM-labeled polypeptide and ATP were added to the 1-fold kinase buffer solution to obtain a 2.5-fold substrate solution. • 3) 10 μL of 2.5-fold kinase solution was added to the 384-well reaction plate, which already contained 5 μL of 5-fold compound in 10% DMSO. And the mixed solution was incubated at room temperature for 10 min. • 4) 10 μL of 2.5-fold substrate solution was added to the 384-well reaction plate. • 5) Kinase reaction and termination: the mixed solution was incubated at 28° C. for a certain period of time, and 25 μL of stop solution was added to stop the reaction. • 2.4 Data reading of Caliper EZ Reader II • 2.5 Calculation of percent inhibition and IC50 • 1) Percent conversion data were copied from the Caliper EZ Reader. • 2) Percent conversion was converted into percent inhibition data, wherein, max referred to percent conversion of the DMSO control, and min referred to percent conversion of the negative control without kinase activity. Percent inhibition=(max−conversion)/(max−min)*100. • 3) The IC50 value was fitted with XLFit excel add-in version 5.4.0.8: Fitting formula: Y=Bottom+(Top−Bottom)/(1+(IC50/X)^HillSlope).

[2] = system: M-07e human cytomegalic leukemia cells; assay: KIT-related cell proliferation experiment (Cell Titer Glo); assay type: cell-based; conditions: 72 h, M-07e cells, SCF, 3 days, CTG, read-out: Cytological experiment KIT IC50
Description: (§1) Functional effects of compounds on the proliferation of several cell lines were evaluated by Cell Titer Glo (CTG) studies in the present invention, and effects of the compounds on the proliferation of different cells were evaluated to determine the selectivity degree of the compounds. In the study, M-07e human cytomegalic leukemia cells (cat. No. CBP60791) from Nanjing Kebai Biotechnology Co., Ltd. were cultured in an incubator under conditions of RPMI1640 (Gibco, cat. No. 11875-119), 20% fetal bovine serum (Gibco, 10099-141), human 10 ng/mL GM-CSF granulocyte macrophage colony-stimulating factors (R&D, cat. No. 215-GM-010), 37° C. and 5% CO2; and Kasumi-1 human acute myeloblastic leukemia cells (cat. No. CBP60524) were cultured in an incubator under conditions of RPMI1640 (Gibco, cat. No. 11875-119), 20% fetal bovine serum (Gibco, 10099-141), 37° C. and 5% CO2; NCI-H1703 human non-small cell lung squamous carcinoma cells (cat. No. CBP60115) were cultured in an incubator under conditions of RPMI1640 (Gibco, cat. No. 11875-119), 10% fetal bovine serum (Gibco, 10099-141), 37° C. and 5% CO2; and MV-4-11 human acute monocytic leukemia cells (cat. No. CBP60522) were cultured in an incubator under conditions of IMDM (Invitrogen, cat. No. 12440053), 20% fetal bovine serum (Gibco, 10099-141), 37° C. and 5% CO2. Since ATP is an index for viable cell metabolism, CTG (Promega, #G7573) reagent is a homogeneous detection method for detecting the number of viable cells in the culture by quantifying ATP. Therefore, compound-mediated inhibition for cell proliferation/survival was evaluated by quantifying ATP content in cells, and the specific experimental process was as follows.
I) M-07e Human Cytomegalic Leukemia Cell: • 1. The cells were plated into a tissue-culture-medium-treated 96-well plate (Costar #3904) with 3500 cells/well/80 μL fresh culture medium, and cultured for 24 hrs; • 2. the next day, 10 μL of culture medium containing testing compound with 10-fold of final concentration was added to each well; • 3.

[3] = system: MV-4-11 human acute monocytic leukemia cells; assay: FLT3-related cell proliferation experiment (Cell Titer Glo); assay type: cell-based; conditions: MV4-11, 72 h, MV-4-11 cells, 3 days, CTG, read-out: Cytological experiment FLT3 IC50
Description: as §1
III) MV-4-11 Human Acute Monocytic Leukemia Cell • 1.

T1 sequence (P07333 20-972): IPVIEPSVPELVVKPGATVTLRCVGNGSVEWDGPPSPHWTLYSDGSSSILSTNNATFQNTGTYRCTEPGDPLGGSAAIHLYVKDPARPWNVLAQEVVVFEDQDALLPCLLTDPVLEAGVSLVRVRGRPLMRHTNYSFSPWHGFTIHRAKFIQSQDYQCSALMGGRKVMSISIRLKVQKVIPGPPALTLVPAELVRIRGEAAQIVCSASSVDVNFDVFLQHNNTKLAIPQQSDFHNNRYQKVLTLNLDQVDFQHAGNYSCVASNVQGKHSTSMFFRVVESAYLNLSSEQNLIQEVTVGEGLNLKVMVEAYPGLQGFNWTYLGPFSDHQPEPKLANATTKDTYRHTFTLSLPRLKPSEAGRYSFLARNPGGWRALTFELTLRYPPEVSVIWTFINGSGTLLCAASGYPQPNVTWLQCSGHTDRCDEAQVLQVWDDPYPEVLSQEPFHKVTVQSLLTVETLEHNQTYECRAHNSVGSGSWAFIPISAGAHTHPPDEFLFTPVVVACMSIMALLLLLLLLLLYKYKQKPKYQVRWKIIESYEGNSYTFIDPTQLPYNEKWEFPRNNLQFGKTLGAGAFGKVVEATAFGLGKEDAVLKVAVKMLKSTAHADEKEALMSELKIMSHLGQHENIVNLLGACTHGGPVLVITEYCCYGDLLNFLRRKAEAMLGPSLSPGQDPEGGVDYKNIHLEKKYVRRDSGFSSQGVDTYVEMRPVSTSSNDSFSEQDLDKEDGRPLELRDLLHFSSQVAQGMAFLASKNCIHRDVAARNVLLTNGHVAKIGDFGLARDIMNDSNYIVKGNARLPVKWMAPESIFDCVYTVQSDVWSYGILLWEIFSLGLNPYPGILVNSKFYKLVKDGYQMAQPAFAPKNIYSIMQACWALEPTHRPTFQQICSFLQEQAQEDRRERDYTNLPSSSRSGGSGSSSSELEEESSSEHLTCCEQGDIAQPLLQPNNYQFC

| SMILES | IC50 [1] | IC50 [2] | IC50 [3] |
| --- | --- | --- | --- |
| Cc1nc(-c2cnc3n(c2=O)CCCN3C)ccc1Cc1c[nH]c2ncccc12 [Example 14, 3-(5-((1H-pyrrolo[2,3-b]pyridin-3-yl)methyl)-6-methylpyridin-2-yl)-9-methyl-6,7,8,9-tetrahydro-4H-pyrimido[1,2-a]pyrimidin-4-one] | 55.2 nM | 10600 nM | > 18000 nM |
| Cc1nc(-c2cnc3n(c2=O)CCCN3C)ccc1Cc1c[nH]c2ncc(O)cc12 [Example 23] | 38.9 nM | 1840 nM | > 2000 nM |
| Cc1nc(-c2cnc3n(c2=O)CCCN3C)ccc1Cc1c[nH]c2ncc(-c3cnn(C)c3)cc12 [Example 18, 9-methyl-3-(6-methyl-5-((5-(1-methyl-1H-pyrazol-4-yl)-1H-pyrrolo[2,3-b]pyridin-3-yl)methyl)pyridin-2-yl)-6,7,8,9-tetrahydro-4H-pyrimido[1,2-a]pyrimidin-4-one] | 4.34 nM | 232 nM | 505 nM |
| COc1cnc2[nH]cc(Cc3ccc(-c4cnc5n(c4=O)CCCN5C)nc3C)c2c1 [Example 22, 3-(5-((5-methoxy-1H-pyrrolo[2,3-b]pyridin-3-yl)methyl)-6-methylpyridin-2-yl)-9-methyl-6,7,8,9-tetrahydro-4H-pyrimido[1,2-a]pyrimidin-4-one] | 43.5 nM | 1520 nM | > 6000 nM |
| Cc1cnc2[nH]cc(Cc3ccc(-c4cnc5n(c4=O)CCCN5C)nc3C)c2c1 [Example 21, 9-methyl-3-(6-methyl-5-((5-methyl-1H-pyrrolo[2,3-b]pyridin-3-yl)methyl)pyridin-2-yl)-6,7,8,9-tetrahydro-4H-pyrimido[1,2-a]pyrimidin-4-one] | 96.3 nM | 1510 nM | > 18000 nM |
| Cc1nc(-c2cnc(NC(C)C)[nH]c2=O)ccc1Cc1c[nH]c2ncc(F)cc12 [Example 5, 5-(5-((5-fluoro-1H-pyrrolo[2,3-b]pyridin-3-yl)methyl)-6-methylpyridin-2-yl)-2-(isopropylamino)pyrimidin-4(3H)-one] | 45.9 nM | 1120 nM | > 2000 nM |
| CCN1CCCn2c1ncc(-c1ccc(Cc3c[nH]c4ncc(-c5cnn(C)c5)cc34)c(C)n1)c2=O [Example 17] | 5.35 nM | 38.5 nM | 27.4 nM |
| CCN1CCCn2c1ncc(-c1ccc(Cc3c[nH]c4ncc(Cl)cc34)c(C)n1)c2=O [Example 16, 3-(5-((5-chloro-1H-pyrrolo[2,3-b]pyridin-3-yl)methyl)-6-methylpyridin-2-yl)-9-ethyl-6,7,8,9-tetrahydro-4H-pyrimido[1,2-a]pyrimidin-4-one] | 45.6 nM | 271 nM | 876 nM |
| Cc1nc(-c2cnc3n(c2=O)CCCN3C)ccc1Cc1c[nH]c2ncc(F)cc12 [Example 20, 3-(5-((5-fluoro-1H-pyrrolo[2,3-b]pyridin-3-yl)methyl)-6-methylpyridin-2-yl)-9-methyl-6,7,8,9-tetrahydro-4H-pyrimido[1,2-a]pyrimidin-4-one] | 46.1 nM | 3190 nM | > 18000 nM |
| Cc1nc(-c2cnc(NC(C)C)n(C)c2=O)ccc1Cc1c[nH]c2ncccc12 [Example 7, 5-(5-((1H-pyrrolo[2,3-b]pyridin-3-yl)methyl)-6-methylpyridin-2-yl)-2-(isopropylamino)-3-methylpyrimidin-4(3H)-one] | 36.7 nM | 834 nM | 1290 nM |
| Cc1nc(-c2cnc3n(c2=O)CCCN3C)ccc1Cc1c[nH]c2ncc(Cl)cc12 [Example 13, 3-(5-((5-chloro-1H-pyrrolo[2,3-b]pyridin-3-yl)methyl)-6-methylpyridin-2-yl)-9-methyl-6,7,8,9-tetrahydro-4H-pyrimido[1,2-a]pyrimidin-4-one] | 65.6 nM | 1200 nM | > 6000 nM |
| Cc1nc(-c2cnc3n(c2=O)CCC(C)N3C)ccc1Cc1c[nH]c2ncc(Cl)cc12 (stereo not drawn) [Example 15, 3-(5-((5-chloro-1H-pyrrolo[2,3-b]pyridin-3-yl)methyl)-6-methylpyridin-2-yl)-8,9-dimethyl-6,7,8,9-tetrahydro-4H-pyrimido[1,2-a]pyrimidin-4-one] | 49.5 nM | 788 nM | > 2000 nM |
